From paper PMC11975047, “Antiproliferative effects, mechanism of action and tumor reduction studies in a lung cancer xenograft mouse model of an organometallic gold(I) alkynyl complex” (RSC Medicinal Chemistry, 2025) come the findings set out here.

In test [1] the target is T1, thioredoxin reductase (TrxR), rat liver (Rattus norvegicus, UniProt O89049).
T1 construct: gene Txnrd1
The test is described as follows: DTNB reduction assay with purified rat liver TrxR, reference inhibitor.

Test [2] addresses T1, thioredoxin reductase (TrxR), rat liver. Description: DTNB reduction assay with purified rat liver TrxR, […] min preincubation, […] nm.

T1 sequence (O89049 whole entry): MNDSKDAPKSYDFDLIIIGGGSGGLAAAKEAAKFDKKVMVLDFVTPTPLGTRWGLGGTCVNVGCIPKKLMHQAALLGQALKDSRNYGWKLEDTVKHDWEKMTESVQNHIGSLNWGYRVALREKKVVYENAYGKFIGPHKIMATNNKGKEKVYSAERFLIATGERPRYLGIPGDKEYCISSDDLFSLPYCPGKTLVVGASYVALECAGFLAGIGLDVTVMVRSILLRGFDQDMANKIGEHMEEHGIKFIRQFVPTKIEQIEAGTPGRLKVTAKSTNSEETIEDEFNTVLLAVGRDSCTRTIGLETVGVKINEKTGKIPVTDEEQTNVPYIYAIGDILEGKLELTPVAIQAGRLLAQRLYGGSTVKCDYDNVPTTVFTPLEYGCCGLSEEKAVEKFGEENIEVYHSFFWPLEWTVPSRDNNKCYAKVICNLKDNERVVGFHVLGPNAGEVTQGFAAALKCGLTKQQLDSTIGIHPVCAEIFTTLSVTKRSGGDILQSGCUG

Regarding `CC[P](CC)(CC)=[Au][S][C@@H]1O[C@H](COC(C)=O)[C@@H](OC(C)=O)[C@H](OC(C)=O)[C@H]1OC(C)=O` [AF, Auranofin], in test [1], the IC50 amounted to 30 nM. This counts as double-digit nanomolar. Take `CC[P+](CC)(CC)[Au-][C]#Cc1ccc(OC)cc1` [compound 1, complex 1]: it took 50 ± 10 nM to reach half-maximal inhibition in test [2] (IC50).

What is called IC50 is the point on the concentration scale where inhibition reaches its midpoint. Low values mean higher potency, high ones lower potency.
